PMC7180948, “New Insights into 4-Anilinoquinazolines as Inhibitors of Cardiac Troponin I–Interacting Kinase (TNNi3K)” (Molecules, 2020)

Columns and labels:
Test in all cases: biochemical
Design in all cases: KINOMEscan competition binding panel (Eurofins DiscoverX), single concentration, percent inhibition
Conditions in all cases: read-out: 15 at 1 µM % inhibition
[1] = molecular target: T1, ABL1(F317I)-nonphosphorylated (Homo sapiens, UniProt P00519, F317I)
T1 construct: nonphosphorylated
Outline: (§1)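 Selectivity profile from a KINOMEscan run against >400 human kinases; test concentration 1 µM.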

ACVR1B = ACVR1B (Homo sapiens, UniProt P36896)
Outline: as §1

ACVRL1 = ACVRL1 (Homo sapiens, UniProt P37023)
Outline: as §1

BMX = BMX (Homo sapiens, UniProt P51813)
Outline: as §1

BTK = BTK (Homo sapiens, UniProt Q06187)
Outline: as §1

DAPK2 = DAPK2 (Homo sapiens, UniProt Q9UIK4)
Outline: as §1

DDR1 = DDR1 (Homo sapiens, UniProt Q08345)
Outline: as §1

FLT3 = FLT3 (Homo sapiens, UniProt P36888)
Outline: as §1

GRK2 = GRK2 (Homo sapiens, UniProt P25098)
Outline: as §1

ITK = ITK (Homo sapiens, UniProt Q08881)
Outline: as §1

[2] = molecular target: T2, JAK1(JH1domain-catalytic) (Homo sapiens, UniProt P23458)
T2 construct: JH1domain-catalytic
Outline: as §1

JNK1 = molecular target: T3, JNK1 (Homo sapiens, UniProt P45983)
T3 construct: gene MAPK8
Outline: as §1

LRRK2(G2019S) = LRRK2(G2019S) (Homo sapiens, UniProt Q5S007, G2019S)
Outline: as §1

MELK = MELK (Homo sapiens, UniProt Q14680)
Outline: as §1

MET(M1250T) = MET(M1250T) (Homo sapiens, UniProt P08581, M1250T)
Outline: as §1

MST3 = molecular target: T4, MST3 (Homo sapiens, UniProt Q9Y6E0)
T4 construct: gene STK24
Outline: as §1

MYLK2 = MYLK2 (Homo sapiens, UniProt Q9H1R3)
Outline: as §1

MYO3B = MYO3B (Homo sapiens, UniProt Q8WXR4)
Outline: as §1

NEK2 = NEK2 (Homo sapiens, UniProt P51955)
Outline: as §1

PIK3CA(C420R) = PIK3CA(C420R) (Homo sapiens, UniProt P42336, C420R)
Outline: as §1

PKMYT1 = PKMYT1 (Homo sapiens, UniProt Q99640)
Outline: as §1

TEC = TEC (Homo sapiens, UniProt P42680)
Outline: as §1

TNK2 = TNK2 (Homo sapiens, UniProt Q07912)
Outline: as §1

WNK2 = WNK2 (Homo sapiens, UniProt Q9Y3S1)
Outline: as §1

Chain of ITK (Q08881 whole entry): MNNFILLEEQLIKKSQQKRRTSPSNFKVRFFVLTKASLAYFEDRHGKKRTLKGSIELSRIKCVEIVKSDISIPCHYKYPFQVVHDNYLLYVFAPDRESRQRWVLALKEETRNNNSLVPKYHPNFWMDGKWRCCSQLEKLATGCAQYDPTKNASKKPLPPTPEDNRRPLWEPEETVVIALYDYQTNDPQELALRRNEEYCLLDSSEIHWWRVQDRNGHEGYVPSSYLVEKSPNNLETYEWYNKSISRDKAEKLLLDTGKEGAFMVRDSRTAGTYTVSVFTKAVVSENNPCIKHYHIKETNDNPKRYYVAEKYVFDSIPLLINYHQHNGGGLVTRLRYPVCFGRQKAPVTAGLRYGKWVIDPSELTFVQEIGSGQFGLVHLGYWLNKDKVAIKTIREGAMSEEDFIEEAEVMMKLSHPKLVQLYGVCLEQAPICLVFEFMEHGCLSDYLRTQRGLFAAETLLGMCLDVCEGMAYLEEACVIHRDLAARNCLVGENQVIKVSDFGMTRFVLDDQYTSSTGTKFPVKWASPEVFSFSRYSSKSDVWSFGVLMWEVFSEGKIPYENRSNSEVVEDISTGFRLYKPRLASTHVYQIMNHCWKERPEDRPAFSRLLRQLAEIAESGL
Chain of WNK2 (Q9Y3S1 whole entry): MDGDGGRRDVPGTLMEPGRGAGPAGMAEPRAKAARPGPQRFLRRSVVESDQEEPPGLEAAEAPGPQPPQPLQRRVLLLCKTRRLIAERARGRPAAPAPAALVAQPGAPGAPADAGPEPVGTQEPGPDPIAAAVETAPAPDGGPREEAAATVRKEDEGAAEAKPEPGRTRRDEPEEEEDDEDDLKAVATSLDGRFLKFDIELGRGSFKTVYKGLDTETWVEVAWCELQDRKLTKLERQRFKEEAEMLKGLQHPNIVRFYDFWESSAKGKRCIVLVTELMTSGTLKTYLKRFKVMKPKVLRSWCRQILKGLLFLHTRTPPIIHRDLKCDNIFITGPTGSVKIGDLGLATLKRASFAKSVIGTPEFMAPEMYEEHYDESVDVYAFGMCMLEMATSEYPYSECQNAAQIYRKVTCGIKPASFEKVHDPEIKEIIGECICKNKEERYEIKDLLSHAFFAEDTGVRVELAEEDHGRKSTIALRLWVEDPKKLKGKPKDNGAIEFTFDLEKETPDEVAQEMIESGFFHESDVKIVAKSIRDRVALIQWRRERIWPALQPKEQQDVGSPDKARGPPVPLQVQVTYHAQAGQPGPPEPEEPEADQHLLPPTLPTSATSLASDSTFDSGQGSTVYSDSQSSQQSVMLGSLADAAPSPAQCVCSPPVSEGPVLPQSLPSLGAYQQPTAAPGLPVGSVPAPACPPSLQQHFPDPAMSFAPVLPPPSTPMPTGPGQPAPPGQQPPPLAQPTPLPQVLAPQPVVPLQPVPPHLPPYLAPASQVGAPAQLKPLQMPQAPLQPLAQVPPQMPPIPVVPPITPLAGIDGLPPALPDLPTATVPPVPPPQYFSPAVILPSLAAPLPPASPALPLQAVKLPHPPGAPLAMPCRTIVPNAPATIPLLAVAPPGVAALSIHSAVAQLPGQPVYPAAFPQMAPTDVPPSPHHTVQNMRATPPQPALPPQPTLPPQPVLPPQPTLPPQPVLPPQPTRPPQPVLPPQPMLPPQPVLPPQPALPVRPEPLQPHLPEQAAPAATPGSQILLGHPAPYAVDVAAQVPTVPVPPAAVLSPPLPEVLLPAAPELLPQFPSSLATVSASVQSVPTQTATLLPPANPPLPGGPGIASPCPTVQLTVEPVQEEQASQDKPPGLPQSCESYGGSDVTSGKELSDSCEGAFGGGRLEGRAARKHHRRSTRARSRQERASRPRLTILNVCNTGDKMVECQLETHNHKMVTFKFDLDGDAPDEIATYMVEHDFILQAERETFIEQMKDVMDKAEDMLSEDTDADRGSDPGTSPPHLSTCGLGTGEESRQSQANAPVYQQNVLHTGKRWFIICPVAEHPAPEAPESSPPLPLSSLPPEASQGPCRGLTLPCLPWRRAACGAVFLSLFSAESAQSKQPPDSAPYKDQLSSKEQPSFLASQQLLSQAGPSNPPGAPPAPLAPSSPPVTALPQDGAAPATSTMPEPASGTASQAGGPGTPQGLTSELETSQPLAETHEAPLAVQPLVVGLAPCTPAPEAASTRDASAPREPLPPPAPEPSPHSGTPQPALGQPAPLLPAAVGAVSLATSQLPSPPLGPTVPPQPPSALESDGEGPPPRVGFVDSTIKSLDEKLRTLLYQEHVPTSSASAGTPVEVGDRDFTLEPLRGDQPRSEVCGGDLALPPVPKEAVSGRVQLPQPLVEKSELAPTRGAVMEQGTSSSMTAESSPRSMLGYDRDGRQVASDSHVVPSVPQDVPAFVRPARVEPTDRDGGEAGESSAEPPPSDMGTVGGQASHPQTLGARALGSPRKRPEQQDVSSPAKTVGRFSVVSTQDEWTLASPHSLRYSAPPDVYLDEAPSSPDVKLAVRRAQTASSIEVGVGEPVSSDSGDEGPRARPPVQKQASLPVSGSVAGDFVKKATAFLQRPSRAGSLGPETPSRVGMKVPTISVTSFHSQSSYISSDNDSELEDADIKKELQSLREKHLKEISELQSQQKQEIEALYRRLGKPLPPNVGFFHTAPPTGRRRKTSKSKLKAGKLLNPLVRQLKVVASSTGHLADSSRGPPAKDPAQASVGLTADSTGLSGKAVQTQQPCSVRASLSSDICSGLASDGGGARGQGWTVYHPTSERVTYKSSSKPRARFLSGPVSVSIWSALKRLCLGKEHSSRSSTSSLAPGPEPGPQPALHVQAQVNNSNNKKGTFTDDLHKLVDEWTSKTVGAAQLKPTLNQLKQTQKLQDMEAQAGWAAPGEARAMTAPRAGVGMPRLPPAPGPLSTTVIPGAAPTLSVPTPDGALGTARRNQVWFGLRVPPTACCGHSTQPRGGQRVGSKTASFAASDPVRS
Chain of GRK2 (P25098 whole entry): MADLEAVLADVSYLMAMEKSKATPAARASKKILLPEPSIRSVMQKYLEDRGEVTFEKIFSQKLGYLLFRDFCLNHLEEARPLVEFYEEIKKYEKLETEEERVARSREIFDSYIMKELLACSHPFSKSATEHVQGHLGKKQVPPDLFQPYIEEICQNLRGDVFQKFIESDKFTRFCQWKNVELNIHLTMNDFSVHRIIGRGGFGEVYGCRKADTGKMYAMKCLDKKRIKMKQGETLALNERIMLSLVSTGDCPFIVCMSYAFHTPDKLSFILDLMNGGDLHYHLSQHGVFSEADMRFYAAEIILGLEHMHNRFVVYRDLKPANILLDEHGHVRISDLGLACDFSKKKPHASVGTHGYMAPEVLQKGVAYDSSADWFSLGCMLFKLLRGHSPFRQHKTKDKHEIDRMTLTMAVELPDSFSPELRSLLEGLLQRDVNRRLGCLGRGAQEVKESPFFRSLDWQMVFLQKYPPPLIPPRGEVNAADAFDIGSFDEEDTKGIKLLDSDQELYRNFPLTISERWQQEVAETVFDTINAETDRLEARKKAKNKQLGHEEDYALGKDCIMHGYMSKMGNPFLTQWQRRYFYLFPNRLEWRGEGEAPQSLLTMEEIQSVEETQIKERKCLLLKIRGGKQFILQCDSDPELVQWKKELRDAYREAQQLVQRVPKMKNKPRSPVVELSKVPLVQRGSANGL
Chain of DAPK2 (Q9UIK4 whole entry): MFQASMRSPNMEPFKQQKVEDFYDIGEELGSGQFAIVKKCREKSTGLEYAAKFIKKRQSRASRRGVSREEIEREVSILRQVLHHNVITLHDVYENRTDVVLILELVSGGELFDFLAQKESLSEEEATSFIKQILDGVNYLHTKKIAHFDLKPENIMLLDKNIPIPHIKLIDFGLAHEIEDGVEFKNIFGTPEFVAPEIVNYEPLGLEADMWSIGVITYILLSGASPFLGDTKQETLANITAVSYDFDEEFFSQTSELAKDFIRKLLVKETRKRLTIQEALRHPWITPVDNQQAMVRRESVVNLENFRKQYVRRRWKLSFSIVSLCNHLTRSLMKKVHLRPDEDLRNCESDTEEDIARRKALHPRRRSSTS
T3 sequence (P45983 whole entry): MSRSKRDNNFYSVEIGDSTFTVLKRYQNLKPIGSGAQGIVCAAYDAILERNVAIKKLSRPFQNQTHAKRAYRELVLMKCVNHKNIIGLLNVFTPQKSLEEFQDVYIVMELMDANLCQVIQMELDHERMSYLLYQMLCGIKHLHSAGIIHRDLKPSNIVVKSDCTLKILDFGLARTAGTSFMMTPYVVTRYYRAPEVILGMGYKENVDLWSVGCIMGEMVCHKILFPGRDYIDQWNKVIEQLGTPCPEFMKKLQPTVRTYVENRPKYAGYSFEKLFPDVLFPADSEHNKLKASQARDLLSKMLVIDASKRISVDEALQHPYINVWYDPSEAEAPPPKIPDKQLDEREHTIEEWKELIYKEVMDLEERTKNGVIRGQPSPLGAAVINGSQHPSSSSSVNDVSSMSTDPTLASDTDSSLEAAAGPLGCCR
Chain of MYLK2 (Q9H1R3 whole entry): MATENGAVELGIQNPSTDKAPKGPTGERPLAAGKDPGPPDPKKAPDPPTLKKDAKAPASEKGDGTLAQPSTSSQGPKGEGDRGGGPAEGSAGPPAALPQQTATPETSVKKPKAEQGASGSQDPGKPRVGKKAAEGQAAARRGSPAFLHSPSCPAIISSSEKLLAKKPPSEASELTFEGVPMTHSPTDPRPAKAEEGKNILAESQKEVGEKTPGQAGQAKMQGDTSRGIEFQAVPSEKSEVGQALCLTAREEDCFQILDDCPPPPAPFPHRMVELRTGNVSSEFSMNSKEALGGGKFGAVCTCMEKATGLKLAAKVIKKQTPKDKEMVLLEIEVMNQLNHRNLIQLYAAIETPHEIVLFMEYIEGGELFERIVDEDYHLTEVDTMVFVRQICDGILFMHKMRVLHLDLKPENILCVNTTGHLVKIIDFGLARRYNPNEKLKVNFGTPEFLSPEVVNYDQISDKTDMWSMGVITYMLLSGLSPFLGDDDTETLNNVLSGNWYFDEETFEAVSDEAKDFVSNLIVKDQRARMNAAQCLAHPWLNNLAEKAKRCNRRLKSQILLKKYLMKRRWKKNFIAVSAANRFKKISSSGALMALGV

inhibition at 1 µM [1]: 17% | inhibition at 1 µM (ACVR1B): 0% | inhibition at 1 µM (ACVRL1): 0% | inhibition at 1 µM (BMX): 10% | inhibition at 1 µM (BTK): 26% | inhibition at 1 µM (DAPK2): 0% | inhibition at 1 µM (DDR1): 0% | inhibition at 1 µM (FLT3): 10% | inhibition at 1 µM (GRK2): 10% | inhibition at 1 µM (ITK): 0% | inhibition at 1 µM [2]: 0% | inhibition at 1 µM (JNK1): 14% | inhibition at 1 µM (LRRK2(G2019S)): 8% | inhibition at 1 µM (MELK): 0% | inhibition at 1 µM (MET(M1250T)): 0% | inhibition at 1 µM (MST3): 0% | inhibition at 1 µM (MYLK2): 3% | inhibition at 1 µM (MYO3B): 15% | inhibition at 1 µM (NEK2): 1% | inhibition at 1 µM (PIK3CA(C420R)): 11% | inhibition at 1 µM (PKMYT1): 0% | inhibition at 1 µM (TEC): 13% | inhibition at 1 µM (TNK2): 0% | inhibition at 1 µM (WNK2): 14%
Structure (SMILES): CNS(=O)(=O)c1ccc(N(C)C)c(Nc2nc(C)nc3cc(OC)c(OC)cc23)c1 [compound 15, 3-((6,7-dimethoxy-2-methylquinazolin-4-yl)amino)-4-(dimethylamino)-N-methylbenzenesulfonamide]
